From ChEMBL document CHEMBL1144680, “Structure-guided design of aminopyrimidine amides as potent, selective inhibitors of lymphocyte specific kinase: synthesis, structure-activity relationships, and inhibition of in vivo T cell activation” (J Med Chem, 2008)

Assays:
Lymphocyte = assay: Inhibition of T cell activation in human peripheral blood lymphocytes by mixed lymphocyte reaction; type: functional, cell-based
[1] = biological target: Vascular endothelial growth factor receptor 2 (Homo sapiens, UniProt P35968); assay: Inhibition of KDR by HTRF assay
[2] = biological target: Tyrosine-protein kinase Lck (Homo sapiens, UniProt P06239)
Description: Inhibition of Lck by HTRF assay

Angiopoietin-1 receptor = Angiopoietin-1 receptor (Homo sapiens, UniProt Q02763); assay: Inhibition of Tie2 by HTRF assay
[3] = biological target: Mitogen-activated protein kinase 14 (Homo sapiens, UniProt Q16539); assay: Inhibition of p38alpha by HTRF assay
[4] = biological target: T1, Tyrosine-protein kinase JAK3 (Homo sapiens, UniProt P52333); assay: Inhibition of Jak3 by HTRF assay
T1 sequence (P52333 whole entry): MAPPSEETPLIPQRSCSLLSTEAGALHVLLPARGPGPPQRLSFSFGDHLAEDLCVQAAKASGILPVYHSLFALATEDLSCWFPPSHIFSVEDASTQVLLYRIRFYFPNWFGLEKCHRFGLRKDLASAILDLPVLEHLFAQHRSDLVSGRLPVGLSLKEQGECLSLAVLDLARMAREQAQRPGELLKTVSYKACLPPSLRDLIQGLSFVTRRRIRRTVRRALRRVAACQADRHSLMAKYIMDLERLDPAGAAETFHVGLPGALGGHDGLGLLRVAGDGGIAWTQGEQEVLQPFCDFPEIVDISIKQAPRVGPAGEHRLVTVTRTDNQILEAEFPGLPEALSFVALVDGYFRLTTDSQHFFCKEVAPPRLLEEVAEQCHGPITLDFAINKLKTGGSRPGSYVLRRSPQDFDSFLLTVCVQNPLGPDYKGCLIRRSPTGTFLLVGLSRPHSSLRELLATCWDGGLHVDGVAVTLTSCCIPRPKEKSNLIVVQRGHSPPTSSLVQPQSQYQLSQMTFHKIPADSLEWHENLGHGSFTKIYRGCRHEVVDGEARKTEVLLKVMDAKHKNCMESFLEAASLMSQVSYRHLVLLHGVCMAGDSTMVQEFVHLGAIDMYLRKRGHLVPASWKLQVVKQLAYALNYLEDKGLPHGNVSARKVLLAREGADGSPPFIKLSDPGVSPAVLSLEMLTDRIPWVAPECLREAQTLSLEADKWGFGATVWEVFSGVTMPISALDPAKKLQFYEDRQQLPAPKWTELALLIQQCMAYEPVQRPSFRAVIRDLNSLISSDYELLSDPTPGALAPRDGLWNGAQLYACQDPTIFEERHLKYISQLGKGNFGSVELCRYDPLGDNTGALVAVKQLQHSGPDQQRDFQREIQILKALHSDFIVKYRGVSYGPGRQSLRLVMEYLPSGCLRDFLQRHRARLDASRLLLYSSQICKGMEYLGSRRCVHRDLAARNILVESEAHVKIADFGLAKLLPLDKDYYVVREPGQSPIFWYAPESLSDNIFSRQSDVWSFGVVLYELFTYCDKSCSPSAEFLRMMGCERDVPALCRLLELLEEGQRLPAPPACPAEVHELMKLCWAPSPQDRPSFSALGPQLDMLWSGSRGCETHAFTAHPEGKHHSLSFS

Mus musculus = species: Mus musculus; assay: Inhibition of anti-CD3-induced IL2 production in BALB/c mouse; type: functional
[5] = Volume of distribution at steady state in Sprague-Dawley rat at 0.5 mg/kg, iv; type: ADME, organism-based; set-up: dose 0.5 mg/kg, route intravenous; details: in vivo, read-out: Vdss
[6] = Half life in Sprague-Dawley rat at 0.5 mg/kg, iv; type: ADME, organism-based; set-up: dose 0.5 mg/kg, route intravenous; details: in vivo
[7] = Clearance in Sprague-Dawley rat at 0.5 mg/kg, iv; type: ADME, organism-based; set-up: dose 0.5 mg/kg, route intravenous; details: in vivo
[8] = Tmax in Sprague-Dawley rat at 2 mg/kg; type: ADME, organism-based; set-up: dose 2 mg/kg; details: in vivo
Blood = assay: Inhibition of anti-CD3-induced IL2 production in human whole blood by ELISA; type: functional, tissue-based
[9] = AUC (0 to infinity) in Sprague-Dawley rat at 2 mg/kg, po; type: ADME, organism-based; set-up: time infinity, dose 2 mg/kg, route oral; details: plasma
[10] = Protein binding in rat plasma; type: ADME, cell-free; details: read-out: PB (converted)
[11] = Protein binding in mouse plasma; type: ADME, cell-free; details: read-out: PB (converted)
[12] = Cmax in Sprague-Dawley rat at 2 mg/kg, po; type: ADME, organism-based; set-up: dose 2 mg/kg, route oral; details: in vivo
[13] = Oral bioavailability in Sprague-Dawley rat at 2 mg/kg; type: ADME, organism-based; details: in vivo

Sequence of Tyrosine-protein kinase Lck (P06239 whole entry): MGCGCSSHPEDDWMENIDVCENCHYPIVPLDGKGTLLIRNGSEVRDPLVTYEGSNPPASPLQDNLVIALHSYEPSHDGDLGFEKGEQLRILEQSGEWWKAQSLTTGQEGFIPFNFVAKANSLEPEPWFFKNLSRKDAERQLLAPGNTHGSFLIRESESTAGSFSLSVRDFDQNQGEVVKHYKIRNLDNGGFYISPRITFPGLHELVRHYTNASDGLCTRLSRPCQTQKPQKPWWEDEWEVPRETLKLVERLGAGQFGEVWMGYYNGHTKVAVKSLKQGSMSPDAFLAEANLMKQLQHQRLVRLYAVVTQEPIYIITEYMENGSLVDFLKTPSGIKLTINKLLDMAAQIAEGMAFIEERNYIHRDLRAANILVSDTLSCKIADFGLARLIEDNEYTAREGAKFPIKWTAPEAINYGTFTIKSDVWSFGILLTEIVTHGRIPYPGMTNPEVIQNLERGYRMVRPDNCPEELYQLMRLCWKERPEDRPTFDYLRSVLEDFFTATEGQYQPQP
Sequence of Vascular endothelial growth factor receptor 2 (P35968 whole entry): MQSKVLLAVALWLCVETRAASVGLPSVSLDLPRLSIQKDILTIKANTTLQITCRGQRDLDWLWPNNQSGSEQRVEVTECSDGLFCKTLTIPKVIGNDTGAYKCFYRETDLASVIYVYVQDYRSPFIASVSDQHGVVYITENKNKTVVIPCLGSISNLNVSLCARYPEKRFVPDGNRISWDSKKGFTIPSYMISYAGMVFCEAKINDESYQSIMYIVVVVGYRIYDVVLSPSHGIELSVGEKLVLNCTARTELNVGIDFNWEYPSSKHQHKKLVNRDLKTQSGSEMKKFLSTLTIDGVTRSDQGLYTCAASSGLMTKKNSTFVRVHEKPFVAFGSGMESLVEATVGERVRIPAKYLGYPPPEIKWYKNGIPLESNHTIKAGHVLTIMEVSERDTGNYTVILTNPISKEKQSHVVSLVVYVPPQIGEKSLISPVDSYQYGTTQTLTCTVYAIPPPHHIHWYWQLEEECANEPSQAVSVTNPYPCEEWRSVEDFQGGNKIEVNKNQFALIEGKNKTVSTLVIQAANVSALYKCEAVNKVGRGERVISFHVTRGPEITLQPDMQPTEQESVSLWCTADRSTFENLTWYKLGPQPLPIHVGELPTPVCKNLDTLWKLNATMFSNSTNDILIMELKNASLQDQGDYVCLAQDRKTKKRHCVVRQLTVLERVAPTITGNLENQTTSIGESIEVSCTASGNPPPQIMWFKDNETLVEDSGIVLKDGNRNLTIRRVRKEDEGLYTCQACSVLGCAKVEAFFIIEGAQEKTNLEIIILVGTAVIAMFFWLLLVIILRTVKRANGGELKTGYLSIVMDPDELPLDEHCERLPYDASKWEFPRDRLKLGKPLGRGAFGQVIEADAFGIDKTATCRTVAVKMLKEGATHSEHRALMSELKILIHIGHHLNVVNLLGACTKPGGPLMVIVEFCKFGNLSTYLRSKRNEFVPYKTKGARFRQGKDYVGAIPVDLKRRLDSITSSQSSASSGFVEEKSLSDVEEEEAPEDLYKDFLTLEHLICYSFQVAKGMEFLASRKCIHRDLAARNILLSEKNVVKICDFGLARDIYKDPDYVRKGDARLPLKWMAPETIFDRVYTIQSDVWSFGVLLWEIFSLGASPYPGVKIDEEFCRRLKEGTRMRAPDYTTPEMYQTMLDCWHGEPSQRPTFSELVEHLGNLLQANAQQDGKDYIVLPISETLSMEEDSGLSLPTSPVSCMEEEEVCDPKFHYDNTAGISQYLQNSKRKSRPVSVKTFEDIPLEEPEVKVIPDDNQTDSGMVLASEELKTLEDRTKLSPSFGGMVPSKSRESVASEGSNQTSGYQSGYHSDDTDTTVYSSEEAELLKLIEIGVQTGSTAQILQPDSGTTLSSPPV
Sequence of Angiopoietin-1 receptor (Q02763 whole entry): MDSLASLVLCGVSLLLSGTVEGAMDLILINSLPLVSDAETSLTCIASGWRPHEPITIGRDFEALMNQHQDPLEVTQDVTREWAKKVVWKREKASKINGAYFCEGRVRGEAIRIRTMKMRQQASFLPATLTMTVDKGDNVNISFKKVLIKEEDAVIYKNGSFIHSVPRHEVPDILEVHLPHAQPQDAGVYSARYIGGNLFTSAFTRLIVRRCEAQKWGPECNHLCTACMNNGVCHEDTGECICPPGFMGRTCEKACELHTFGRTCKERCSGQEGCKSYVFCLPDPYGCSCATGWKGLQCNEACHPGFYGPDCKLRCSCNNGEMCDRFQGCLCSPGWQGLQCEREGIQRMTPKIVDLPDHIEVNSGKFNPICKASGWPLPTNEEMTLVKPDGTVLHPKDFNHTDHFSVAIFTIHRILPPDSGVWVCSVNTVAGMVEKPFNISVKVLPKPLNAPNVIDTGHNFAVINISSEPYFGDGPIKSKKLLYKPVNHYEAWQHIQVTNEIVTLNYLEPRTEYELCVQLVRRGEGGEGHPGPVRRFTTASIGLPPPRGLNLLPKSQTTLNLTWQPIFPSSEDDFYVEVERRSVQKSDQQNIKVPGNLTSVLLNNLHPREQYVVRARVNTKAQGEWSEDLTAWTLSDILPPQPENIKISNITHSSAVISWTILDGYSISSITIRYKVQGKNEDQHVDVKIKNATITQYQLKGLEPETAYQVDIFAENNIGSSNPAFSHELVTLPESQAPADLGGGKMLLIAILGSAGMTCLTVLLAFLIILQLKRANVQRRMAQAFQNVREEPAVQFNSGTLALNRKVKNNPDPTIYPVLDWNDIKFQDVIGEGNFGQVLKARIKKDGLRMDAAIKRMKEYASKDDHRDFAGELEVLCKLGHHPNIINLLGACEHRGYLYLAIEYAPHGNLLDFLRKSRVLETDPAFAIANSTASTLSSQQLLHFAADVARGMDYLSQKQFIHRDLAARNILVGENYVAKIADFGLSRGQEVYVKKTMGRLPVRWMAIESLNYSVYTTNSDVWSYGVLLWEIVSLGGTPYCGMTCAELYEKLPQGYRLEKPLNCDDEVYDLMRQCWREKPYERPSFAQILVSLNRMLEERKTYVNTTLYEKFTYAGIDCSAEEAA
Sequence of Mitogen-activated protein kinase 14 (Q16539 whole entry): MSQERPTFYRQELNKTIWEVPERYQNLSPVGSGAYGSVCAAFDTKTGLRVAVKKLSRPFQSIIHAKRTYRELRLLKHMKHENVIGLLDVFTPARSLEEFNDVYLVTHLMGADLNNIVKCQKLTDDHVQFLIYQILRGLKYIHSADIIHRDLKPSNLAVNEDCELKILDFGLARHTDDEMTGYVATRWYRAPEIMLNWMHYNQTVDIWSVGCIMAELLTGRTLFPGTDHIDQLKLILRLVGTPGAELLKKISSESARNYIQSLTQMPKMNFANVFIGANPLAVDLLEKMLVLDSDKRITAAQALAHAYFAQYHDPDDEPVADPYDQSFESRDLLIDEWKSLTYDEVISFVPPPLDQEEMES

| Compound | IC50 (Lymphocyte) | IC50 [1] | IC50 [2] | IC50 (Angiopoietin-1 receptor) | IC50 [3] | IC50 [4] | ED50 (Mus musculus) | Vd [5] | half-life [6] | clearance [7] | Tmax [8] | IC50 (Blood) | AUC(0-inf) [9] | fraction unbound [10] | fraction unbound [11] | Cmax [12] | bioavailability [13] |
| --- | --- | --- | --- | --- | --- | --- | --- | --- | --- | --- | --- | --- | --- | --- | --- | --- | --- |
| Cc1ccc(NC(=O)c2ccccc2)cc1C(=O)Nc1cnc(Nc2ccc(N3CCN(C)CC3)cc2)nc1 | 187 nM | 947 nM | 5 nM | > 25000 nM | 0.9 nM | > 25000 nM |  |  |  |  |  |  |  |  |  |  |  |
| Cc1ccc(NC(=O)Nc2cccc(C(F)(F)F)c2)cc1C(=O)Nc1cnc(Nc2ccc(N3CCN(C)CC3)cc2)nc1 | 87 nM | 41 nM | 0.6 nM | > 8300 nM | 2 nM | > 25000 nM |  |  |  |  |  |  |  |  |  |  |  |
| Cc1ccc(NC(=O)c2cccc(C(F)(F)F)c2)cc1C(=O)Nc1cnc(NC2CCN(C)CC2)nc1 |  | > 25000 nM | 1310 nM | > 25000 nM | 5 nM | > 25000 nM |  |  |  |  |  |  |  |  |  |  |  |
| C/C=C/C[C@@H](C)[C@@H](O)[C@H]1C(=O)N[C@@H](CC)C(=O)N(C)CC(=O)N(C)[C@@H](CC(C)C)C(=O)N[C@@H](C(C)C)C(=O)N(C)[C@@H](CC(C)C)C(=O)N[C@@H](C)C(=O)N[C@H](C)C(=O)N(C)[C@@H](CC(C)C)C(=O)N(C)[C@@H](CC(C)C)C(=O)N(C)[C@@H](C(C)C)C(=O)N1C [CYCLOSPORINE] |  |  |  |  |  |  | 10 mg/kg |  |  |  |  |  |  |  |  |  |  |
| Cc1ccc(NC(=O)c2cccc(C(F)(F)F)c2)cc1C(=O)Nc1cnc(NCCCN2CCOCC2)nc1 | 821 nM | > 8300 nM | 24 nM | > 25000 nM | 10 nM | > 25000 nM |  |  |  |  |  |  |  |  |  |  |  |
| Cc1ccc(NC(=O)c2ccc(C(C)(C)C)cc2)cc1C(=O)Nc1cnc(Nc2ccc(N3CCN(C)CC3)cc2)nc1 | 10 nM | 32 nM | 1.5 nM | > 8300 nM | 22 nM | > 25000 nM |  | 15.8 L/kg | 2.9 h | 111 mL/min/kg |  |  |  |  |  |  |  |
| COc1ccccc1C(=O)Nc1ccc(C)c(C(=O)Nc2cnc(Nc3ccc(N4CCN(C)CC4)cc3)nc2)c1 | 399 nM | 1120 nM | 5 nM | > 25000 nM | 8 nM | > 25000 nM |  |  |  |  |  |  |  |  |  |  |  |
| CN1CCN(c2ccc(Nc3ncc(NC(=O)c4cc(NC(=O)c5ccc6c(c5)OC(F)(F)O6)ccc4Cl)cn3)cc2)CC1 | 29 nM | 13 nM | 1.8 nM | > 5000 nM | 6 nM | > 5000 nM |  |  |  |  |  |  |  |  |  |  |  |
| COc1cc(OC)cc(C(=O)Nc2ccc(C)c(C(=O)Nc3cnc(Nc4ccc(N5CCN(C)CC5)cc4)nc3)c2)c1 | 77 nM | 120 nM | 1.4 nM | > 8300 nM | 4 nM | > 25000 nM |  | 0.79 L/kg | 2.5 h | 4.83 mL/min/kg | 0.33 h | 43 nM | 528 ng·h/mL | 0.017 | 0.012 | 191 ng/mL | 8% |
| Cc1ccc(NC(=O)c2cnoc2C)cc1C(=O)Nc1cnc(Nc2ccc(N3CCN(C)CC3)cc2)nc1 | 3920 nM | 3780 nM | 14 nM | > 25000 nM | 179 nM | > 25000 nM |  |  |  |  |  |  |  |  |  |  |  |
| Cc1ccc(NC(=O)c2cccc(C(F)(F)F)c2)cc1-c1ccc2nc(N)ncc2c1 | 43 nM | 6 nM | 0.4 nM | 21 nM | 1 nM | 156 nM |  |  |  |  |  |  |  |  |  |  |  |
| Cc1ccc(C(=O)Nc2cccc(C(F)(F)F)c2)cc1C(=O)Nc1cnc(N)nc1 |  | 205 nM | 15 nM | > 5000 nM | 87 nM | > 25000 nM |  |  |  |  |  |  |  |  |  |  |  |
| CCc1ccc(NC(=O)c2ccc3c(c2)OC(F)(F)O3)cc1C(=O)Nc1cnc(Nc2ccc(N3CCN(C)CC3)cc2)nc1 | 928 nM | > 5000 nM | 6 nM | > 25000 nM | 233 nM | > 25000 nM |  |  |  |  |  |  |  |  |  |  |  |
